The source of these data is patent US10689354B2, “Aminoazole derivative” (Teijin Pharma Limited, priority 2015, dated 2020).

In assay [1] the target is T1, androgen receptor (AR-LBD) (Rattus norvegicus, UniProt P15207).
T1 construct: 5 μL of 2×AR-LBD/Fluoromone AL Red Complex contained in the kit; purchased Invitrogen
T1 sequence (P15207 651-882 limits assumed): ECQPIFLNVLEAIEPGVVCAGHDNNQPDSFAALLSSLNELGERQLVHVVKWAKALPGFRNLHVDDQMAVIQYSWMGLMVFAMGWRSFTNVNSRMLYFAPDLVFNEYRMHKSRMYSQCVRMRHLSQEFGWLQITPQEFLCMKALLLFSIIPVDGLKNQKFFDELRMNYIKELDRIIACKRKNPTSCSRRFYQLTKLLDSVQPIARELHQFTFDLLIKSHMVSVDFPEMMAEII
In words: Evaluation of androgen receptor affinity (PolarScreen Androgen Receptor Competitor Assay Kit, Red; fluorescence polarization). Conditions: 22° C. for 5 hours, relative to binding rate of 1 μM DHT, read-out: AR affinity (pEC50) (converted). The essentials: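 FP competition: compound + AR-LBD/Fluoromone AL Red tracer complex, 22° C, 5 h. Reference 1 μM DHT binding rate; pEC50 by 4-parameter fit.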

The target of a further assay is T2, human androgen receptor (Homo sapiens, UniProt P10275).
T2 construct: expressed in transfected cells; host or cells: HEK293
T2 sequence (P10275 1-920): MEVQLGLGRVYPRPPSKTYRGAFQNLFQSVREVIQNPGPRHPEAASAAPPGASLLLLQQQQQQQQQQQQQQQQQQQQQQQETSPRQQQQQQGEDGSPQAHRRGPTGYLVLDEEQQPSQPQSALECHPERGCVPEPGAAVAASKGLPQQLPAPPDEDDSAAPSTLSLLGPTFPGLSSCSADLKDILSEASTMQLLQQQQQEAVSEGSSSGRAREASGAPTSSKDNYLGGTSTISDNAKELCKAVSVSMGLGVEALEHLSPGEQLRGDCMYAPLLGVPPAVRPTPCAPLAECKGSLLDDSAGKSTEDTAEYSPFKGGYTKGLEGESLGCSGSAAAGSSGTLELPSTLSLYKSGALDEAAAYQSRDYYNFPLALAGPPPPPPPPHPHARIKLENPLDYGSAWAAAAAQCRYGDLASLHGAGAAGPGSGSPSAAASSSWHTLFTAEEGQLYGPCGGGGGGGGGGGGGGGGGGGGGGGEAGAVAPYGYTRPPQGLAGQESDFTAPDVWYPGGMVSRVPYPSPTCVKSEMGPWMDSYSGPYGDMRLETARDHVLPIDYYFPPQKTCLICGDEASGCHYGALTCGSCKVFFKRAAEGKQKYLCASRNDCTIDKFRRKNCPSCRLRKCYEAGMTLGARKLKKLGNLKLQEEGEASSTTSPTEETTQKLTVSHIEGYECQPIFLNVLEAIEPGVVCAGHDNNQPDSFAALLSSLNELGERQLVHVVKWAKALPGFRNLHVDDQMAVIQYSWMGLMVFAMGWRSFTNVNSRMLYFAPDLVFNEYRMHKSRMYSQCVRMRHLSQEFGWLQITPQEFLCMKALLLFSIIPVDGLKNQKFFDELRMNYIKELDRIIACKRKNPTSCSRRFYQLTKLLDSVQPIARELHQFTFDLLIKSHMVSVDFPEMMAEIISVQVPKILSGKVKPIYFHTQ
Kind of assay: Reporter assay of an androgen receptor responsive sequence (luciferase, transiently transfected HEK293 cells). Format: cell-based. Conditions: 24 hours incubation, relative to activity of 100 nM DHT, read-out: AR transcriptive activity (pEC50) (converted). Here is the method: Reporter Assay of an Androgen Receptor Responsive Sequence
To examine the agonist activity of compounds for androgen, a reporter assay using an androgen receptor responsive sequence was conducted.
Using Lipofectamine 2000 (Invitrogen), a plasmid mixture (pGL4-ARE (200 ng/well), pcDNA3-hAR (20 ng/well), pRL-TK (Promega) (150 ng/well)) was transiently transfected into HEK293 cells. The contents of the plasmid (mixture) are as follows:
pGL4-ARE is a reporter plasmid containing firefly luciferase sequence under the control of androgen receptor responsive sequence; pcDNA3-hAR is a plasmid containing full-length sequence of human androgen receptor under the constant control of CMV promoter; pRL-TK is a plasmid containing Renilla Luciferase sequence under the control of herpes simplex virus thymidine kinase and used as an internal standard for evaluations of transfection efficiency and compound toxicity.
After the incubation of Lipofectamine 2000 and the plasmid mixture in Opti-MEM for 20 minutes, the mixture was mixed with a cell suspension prepared with Opti-MEM in the similar way, and the cell suspension was plated to a 96-well plate at 20000 cells/well. The transfection was conducted by incubating the plates under the condition of 5% CO2 at 37° C. for 3 hours. Three hours after the transfection, the culture medium was removed and a compound solution prepared by DMEM supplemented with 5% FBS and treated with charcoal was added, and the mixture was incubated under the condition of 5% CO2 at 37° C. for 24 hours. After the incubation with the compound, luciferase activities were measured with a luminometer using Dual-Glo™ Luciferase Assay System (Promega). The measurement of the luciferase activities was performed in accordance with the protocol recommended by Promega. The activity of the compound was determined by comparing to the activity of 100 nM of DHT, and quantified the logarithm value (pEC50) of reciprocal value of the effective concentration of the compound which is equal to 50% of the activity value by applying a 4 parameter goodness-of-fit calculation.

On to `Cc1sc(N(CCc2ccc(Cl)cc2)CC[C@H]2CCCC[C@@H]2O)nc1C(=O)NS(C)(=O)=O` (racemic) [Compound 146, 2-[2-(4-chlorophenyl)ethyl-[2-[trans-2-hydroxycyclohexyl]ethyl]amino]-5-methyl-N-methylsulfonyl-thiazole-4-carboxamide], for which the EC50 was 0.0501 µM in assay [1] and 0.794 µM on human androgen receptor.

For the molecule `Cc1sc(N(Cc2ccc(F)cc2)[C@H]2C[C@@H]2c2ccccc2)nc1C(=O)NS(C)(=O)=O` (racemic) [Compound 149, 2-[(4-fluorophenyl)methyl-(trans-2-phenylcyclopropyl)amino]-5-methyl-N-methylsulfonyl-thiazole-4-carboxamide], the EC50 in assay [1] was 0.158 µM; on human androgen receptor it was 1 µM.

As for `Cc1sc(N(Cc2ccc(Cl)cc2)[C@H]2C[C@@H]2c2ccccc2)nc1C(=O)NS(C)(=O)=O` (racemic) [Compound 150, 2-[(4-chlorophenyl)methyl-(trans-2-phenylcyclopropyl)amino]-5-methyl-N-methylsulfonyl-thiazole-4-carboxamide], the EC50 in assay [1] was 0.0794 µM; at human androgen receptor it was 0.631 µM.

With `Cc1sc(N(CC[C@@H]2CCCC[C@@H]2O)c2ccc(C#N)cc2)nc1C(=O)NS(C)(=O)=O` (racemic) [Compound 409, 2-[4-cyano-N-[2-[cis-2-hydroxycyclohexyl]ethyl]anilino]-5-methyl-N-methylsulfonyl-thiazole-4-carboxamide], the EC50 (in assay [1]; on human androgen receptor) was 0.251 µM in each case.

Turning to `Cc1sc(N(CC[C@@H]2CCCC[C@H]2O)c2ccc(C#N)cc2)nc1C(=O)NS(C)(=O)=O` (racemic) [Compound 410, 2-[4-cyano-N-[2-[trans-2-hydroxycyclohexyl]ethyl]anilino]-5-methyl-N-methylsulfonyl-thiazole-4-carboxamide], the results for the EC50 (in assay [1]; on human androgen receptor) were 0.158 µM and 0.316 µM, respectively.

With `Cc1sc(N(CC[C@H]2CC[C@@H](O)C2)c2ccc(C#N)cc2)nc1C(=O)NS(C)(=O)=O` (racemic) [Compound 436, 2-[4-cyano-N-[2-[cis-3-hydroxycyclopentyl]ethyl]anilino]-5-methyl-N-methylsulfonyl-thiazole-4-carboxamide], the figures for the EC50 (in assay [1]; at human androgen receptor) were 0.501 µM and 1.58 µM, respectively.

For `Cc1sc(N(C[C@@H]2CCCC[C@H](O)C2)c2ccc(C#N)cc2)nc1C(=O)NS(C)(=O)=O` (racemic) [Compound 473, 2-[4-cyano-N-[[cis-3-hydroxycycloheptyl]methyl]anilino]-5-methyl-N-methylsulfonyl-thiazole-4-carboxamide], the EC50 in assay [1] was 0.631 µM; at human androgen receptor it was 1.26 µM.

Turning to `Cc1sc(N(C[C@@H]2CCCC[C@@H](O)C2)c2ccc(C#N)cc2)nc1C(=O)NS(C)(=O)=O` (racemic) [Compound 474, 2-[4-cyano-N-[[trans-3-hydroxycycloheptyl]methyl]anilino]-5-methyl-N-methylsulfonyl-thiazole-4-carboxamide], the EC50 in assay [1] was 0.794 µM; on human androgen receptor, 1 µM.

For the molecule `Cc1oc(N(CCc2ccc(Cl)cc2)CC[C@@H]2CCCC[C@H]2O)nc1C(=O)NS(C)(=O)=O` (racemic) [Compound 547, 2-[2-(4-chlorophenyl)ethyl-[2-[trans-2-hydroxycyclohexyl]ethyl]amino]-5-methyl-N-methylsulfonyl-oxazole-4-carboxamide], the figures for the EC50 (in assay [1]; on human androgen receptor) were 0.316 µM and 2.51 µM, respectively.

`Cc1oc(N(CC[C@@H]2CCCC[C@H]2O)c2ccc(C#N)cc2)nc1C(=O)NS(C)(=O)=O` (racemic) [Compound 624, 2-[4-cyano-N-[2-[trans-2-hydroxycyclohexyl]ethyl]anilino]-5-methyl-N-methylsulfonyl-oxazole-4-carboxamide]: the EC50 in assay [1] is 0.794 µM; at human androgen receptor, 7.94 µM.

Take `CCc1oc(N(CC[C@@H]2CCCC[C@H]2O)c2ccc(C#N)cc2)nc1C(=O)NS(C)(=O)=O` (racemic) [Compound 629, 2-[4-cyano-N-[2-[trans-2-hydroxycyclohexyl]ethyl]anilino]-5-ethyl-N-methylsulfonyl-oxazole-4-carboxamide]: the EC50 in assay [1] is 0.316 µM; on human androgen receptor it was 2.51 µM.

Turning to `Cc1sc(N(Cc2ccccc2)c2ccc(C#N)cc2)nc1C(=O)NS(C)(=O)=O` [Compound 1, 2-(N-benzyl-4-cyano-anilino)-5-methyl-N-methylsulfonyl-thiazole-4-carboxamide], the EC50 in assay [1] is 0.0631 µM; on human androgen receptor it was 0.0794 µM.

As for `Cc1sc(N(Cc2csc(C(F)(F)F)n2)c2ccc(C#N)cc2)nc1C(=O)NS(C)(=O)=O` [Compound 2, 2-[4-cyano-N-[[2-(trifluoromethyl)thiazol-4-yl]methyl]anilino]-5-methyl-N-methylsulfonyl-thiazole-4-carboxamide], the EC50 (in assay [1]; at human androgen receptor) was 0.1 µM throughout.

As for `COc1cccc(CN(c2ccc(C#N)cc2)c2nc(C(=O)NS(C)(=O)=O)c(C)s2)c1` [Compound 3, 2-[4-cyano-N-[(3-methoxyphenyl)methyl]anilino]-5-methyl-N-methylsulfonyl-thiazole-4-carboxamide], the values for the EC50 (in assay [1]; on human androgen receptor) were 0.0631 µM and 0.126 µM, respectively.

Turning to `Cc1sc(N(Cc2cccc(OC(F)F)c2)c2ccc(C#N)cc2)nc1C(=O)NS(C)(=O)=O` [Compound 4, 2-[4-cyano-N-[[3-(difluoromethoxy)phenyl]methyl]anilino]-5-methyl-N-methylsulfonyl-thiazole-4-carboxamide], the values for the EC50 (in assay [1]; on human androgen receptor) were 0.0251 µM and 0.0631 µM, respectively.

In the case of `Cc1sc(N(Cc2ccccc2OC(F)F)c2ccc(C#N)cc2)nc1C(=O)NS(C)(=O)=O` [Compound 5, 2-[4-cyano-N-[[2-(difluoromethoxy)phenyl]methyl]anilino]-5-methyl-N-methylsulfonyl-thiazole-4-carboxamide], the EC50 was 0.1 µM in assay [1] and 0.251 µM at human androgen receptor.

With `Cc1sc(N(Cc2cccc(CO)c2)c2ccc(C#N)cc2)nc1C(=O)NS(C)(=O)=O` [Compound 6, 2-[4-cyano-N-[[3-(hydroxymethyl)phenyl]methyl]anilino]-5-methyl-N-methylsulfonyl-thiazole-4-carboxamide], the EC50 in assay [1] was 0.2 µM; at human androgen receptor, 0.316 µM.

Turning to `Cc1sc(N(Cc2ccc(OC(F)(F)F)cc2)c2ccc(C#N)cc2)nc1C(=O)NS(C)(=O)=O` [Compound 7, 2-[4-cyano-N-[[4-(trifluoromethoxy)phenyl]methyl]anilino]-5-methyl-N-methylsulfonyl-thiazole-4-carboxamide], the EC50 in assay [1] is 0.0316 µM; at human androgen receptor, 0.0631 µM.

Consider `Cc1sc(N(CCC2CCCCC2)Cc2ccc(Cl)cc2)nc1C(=O)NS(=O)(=O)C1CC1` [Compound 730, 2-[(4-chlorophenyl)methyl-(2-cyclohexylethyl)amino]-N-cyclopropylsulfonyl-5-methyl-thiazole-4-carboxamide], for which the EC50 on human androgen receptor was over 10 µM.
